Calls of active or inactive are those of the source.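 Rule for the calls: active = activation curve crossing 200% at or below the highest valid dose tested for that sample; inconclusive = flat curve with activation between 30 and 70%, or poor fit; inactive = the rest, including signal falling instead of rising.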
These molecules were tested against Leucyl-cystinyl aminopeptidase (Mus musculus) (UniProt Q8C129) (assay: IRAP activators, dose response, selectivity assay for ERAP1 modulator project, biochemical, Leu-AMC fluorescence, cherry-picked samples (AID 743339)). Conditions: purified IRAP, Leu-AMC cleavage fluorescence, 1 h.
Chain of Leucyl-cystinyl aminopeptidase (Mus musculus) (Q8C129 whole entry, looked up): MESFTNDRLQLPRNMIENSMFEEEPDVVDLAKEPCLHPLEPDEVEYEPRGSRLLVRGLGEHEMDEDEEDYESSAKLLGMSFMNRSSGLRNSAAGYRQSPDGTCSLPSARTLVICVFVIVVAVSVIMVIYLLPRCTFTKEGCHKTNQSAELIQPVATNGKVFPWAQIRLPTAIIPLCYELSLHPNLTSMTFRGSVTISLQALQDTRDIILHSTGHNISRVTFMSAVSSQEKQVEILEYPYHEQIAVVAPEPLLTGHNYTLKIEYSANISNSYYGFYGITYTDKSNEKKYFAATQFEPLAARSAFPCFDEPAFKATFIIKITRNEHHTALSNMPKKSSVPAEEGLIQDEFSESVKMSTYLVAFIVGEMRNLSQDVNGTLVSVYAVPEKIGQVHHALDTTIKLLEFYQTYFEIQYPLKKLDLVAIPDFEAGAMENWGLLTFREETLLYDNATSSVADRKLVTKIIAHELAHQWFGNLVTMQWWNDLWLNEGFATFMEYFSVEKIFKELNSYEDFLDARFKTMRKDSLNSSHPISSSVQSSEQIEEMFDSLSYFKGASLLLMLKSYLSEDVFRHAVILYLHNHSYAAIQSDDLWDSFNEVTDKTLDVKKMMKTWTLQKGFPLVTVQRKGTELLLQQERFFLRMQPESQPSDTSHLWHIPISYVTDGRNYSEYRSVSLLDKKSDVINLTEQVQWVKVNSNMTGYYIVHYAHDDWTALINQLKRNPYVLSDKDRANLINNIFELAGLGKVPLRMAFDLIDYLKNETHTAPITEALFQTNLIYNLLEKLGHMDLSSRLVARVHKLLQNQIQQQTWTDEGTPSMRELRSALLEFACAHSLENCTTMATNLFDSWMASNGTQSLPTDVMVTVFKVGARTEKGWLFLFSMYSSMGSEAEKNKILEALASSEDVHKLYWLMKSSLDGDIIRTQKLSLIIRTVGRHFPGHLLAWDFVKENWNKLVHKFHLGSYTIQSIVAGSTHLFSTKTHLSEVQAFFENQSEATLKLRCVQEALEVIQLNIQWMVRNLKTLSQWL

Row | Structure (SMILES) | AC200
1 | CCCCc1cc(=O)oc2cc(O)ccc12 | 1670 nM
2 | CCCc1cc(=O)oc2c(CN(CC)CC)c(O)c(Cl)cc12 | 638 nM
3 | CCN1CCN(Cc2c(O)ccc3c(C)cc(=O)oc23)CC1 | 1540 nM
4 | Cc1c(C)c2ccc(O)c(CN3CCCC3)c2oc1=O | 1040 nM
5 | O=C(C[C@H]1CC[C@@H]2[C@H](COC[C@@H](O)CN2C(=O)Nc2cccc(Cl)c2)O1)N1CCCCC1 | > 11000 nM (inactive)
6 | CC(=O)Oc1cc2oc(=O)cc(C)c2cc1Cl | 507 nM
7 | O=S(=O)(O)c1ccc(N2N=C(c3ccccc3)CC2c2ccccc2)cc1 (stereo not drawn) | 1010 nM
8 | Cc1cc(=O)oc2c(CN3CCN(CCO)CC3)c(O)ccc12 | 1450 nM
9 | COCCCn1c(C(=O)N2CCOCC2)cc2c(=O)n3ccccc3nc21 | > 2600 nM (inactive)
10 | CCCN1[C@@H]2Cn3c(ccc(/C=C/c4ccccc4)c3=O)[C@H]1[C@@H](C(=O)NCc1ccccn1)[C@@H]2CO | 992 nM
11 | CCN(CC)Cc1c(O)ccc2cc(-c3nc4ccccc4n3C)c(=O)oc12 | 229 nM
12 | Cc1c(-c2ccccc2)c(=O)oc2cc(O)ccc12 | 1240 nM
13 | CCc1cc(=O)oc2c(CNCc3c(F)cccc3Cl)c(O)ccc12 | 832 nM
14 | COCC(=O)N1[C@@H]2Cn3c(ccc(/C=C/c4ccccc4)c3=O)[C@H]1[C@@H](C(=O)N1CCOCC1)[C@@H]2CO | 757 nM
15 | Cc1ccc2nc3c(cc(C(=O)NCc4ccccc4)c(=N)n3CCCn3ccnc3)c(=O)n2c1 | 2010 nM
16 | Cc1cc(=O)oc2c(CN3CCCCC3)c(O)ccc12 | 988 nM

Row | Structure (SMILES) | AC200
17 | CCc1c(C)c2cc(Cl)c(O)c(CN(CC)CC)c2oc1=O | 546 nM
18 | Cc1c(O)ccc2cc(S(=O)(=O)c3ccccc3)c(=O)oc12 | 439 nM
19 | COc1ccc(-c2cc3ccc(O)cc3oc2=O)cc1OC | 983 nM
20 | O=c1ccc2cc(OC3O[C@H](CO)[C@@H](O)[C@H](O)[C@H]3O)c(O)cc2o1 (stereo partly drawn) | 346 nM
21 | COC(=O)[C@H]1[C@H](CO)[C@H]2Cn3c(ccc(/C=C/c4ccccc4)c3=O)[C@@H]1N2C(=O)C1CCC1 | 842 nM
22 | O=c1ccc2cc(O[C@@H]3O[C@@H](CO)[C@H](O)[C@@H](O)[C@@H]3O)c(O)cc2o1 | 363 nM
23 | CCC(=O)N1[C@@H]2c3ccc(/C=C/c4ccccc4)c(=O)n3C[C@H]1[C@H](CO)[C@H]2C(=O)N(C)C | 872 nM
24 | CC(=O)N1[C@@H]2c3ccc(/C=C/c4ccccc4)c(=O)n3C[C@H]1[C@H](CO)[C@H]2C(=O)N(C)C | 906 nM
25 | CN(C)Cc1c(O)ccc2cc(-c3nc4ccccc4n3C)c(=O)oc12 | 202 nM
26 | COc1ccc(C2=NN(c3ccc(C(=O)O)cc3)C(c3ccc(OC)c(OC)c3)C2)cc1 (stereo not drawn) | 824 nM
27 | O=c1cc(CN2CCN(Cc3ccccc3)CC2)c2ccc(O)cc2o1 | 1470 nM
28 | CC1CN(Cc2cc(=O)oc3cc(O)c(Cl)cc23)CC(C)O1 (stereo not drawn) | 1350 nM
29 | O=c1oc2c(CN3CCN(CCO)CC3)c(O)ccc2cc1-c1ccccn1 | 275 nM
30 | COc1ccc(CNCc2c(O)c(Cl)cc3c(C)c(C)c(=O)oc23)c(OC)c1 | 493 nM
31 | Cc1cc(=O)oc2cc(OCC(=O)N3CCN(C(C)c4ccccc4)CC3)c(Cl)cc12 (stereo not drawn) | 1980 nM

Same assay, conditions: purified IRAP, Leu-AMC cleavage fluorescence, 1 h; at 5 µM (top of the series)

Row | Structure (SMILES) | activation
32 | CCCN(C)C[C@@H]1OCCCC[C@@H](C)Oc2ccc(NS(=O)(=O)c3ccc(C)cc3)cc2C(=O)N([C@@H](C)CO)C[C@@H]1C | 0.889% (inactive)
33 | C[C@@H]1CCCCO[C@@H](CN(C)C(=O)CCC(F)(F)F)[C@@H](C)CN([C@@H](C)CO)C(=O)c2cc(NS(=O)(=O)c3ccc(Cl)cc3)ccc2O1 | 22.3% (inactive)

Same assay, conditions: purified IRAP, Leu-AMC cleavage fluorescence, 1 h; at 5.6 µM (top of the series)

Row | Structure (SMILES) | activation
34 | C[C@@H]1CCCCO[C@@H](CN(C)Cc2ccccc2)[C@@H](C)CN([C@H](C)CO)C(=O)c2cc(NS(=O)(=O)c3cccs3)ccc2O1 | 16.2% (inactive)
35 | Cc1ccc(-c2cc(C(=O)N3CCCC3)c3ccccc3n2)s1 | 152% (inactive)

Same assay, conditions: purified IRAP, Leu-AMC cleavage fluorescence, 1 h; at 8 µM (top of the series)

Row | Structure (SMILES) | activation
36 | CCCN(C)C[C@@H]1OCCCC[C@@H](C)Oc2ccc(NS(=O)(=O)c3ccc(OC)cc3)cc2C(=O)N([C@H](C)CO)C[C@@H]1C | -24.7% (inactive)

Same assay, conditions: purified IRAP, Leu-AMC cleavage fluorescence, 1 h; at 10 µM (top of the series)

Row | Structure (SMILES) | activation
37 | Cc1noc(C)c1S(=O)(=O)Nc1ccc2c(c1)C(=O)N([C@H](C)CO)C[C@H](C)[C@H](CN(C)Cc1ccc3c(c1)OCO3)OCCCC[C@@H](C)O2 | -18.4% (inactive)
38 | Cc1noc(C)c1S(=O)(=O)N(C)C[C@@H]1OCCCC[C@@H](C)Oc2ccc(NS(=O)(=O)c3cccs3)cc2C(=O)N([C@@H](C)CO)C[C@@H]1C | -12.6% (inactive)
39 | CCCN(C)C[C@@H]1OCCCC[C@@H](C)Oc2ccc(NS(=O)(=O)c3c(C)noc3C)cc2C(=O)N([C@H](C)CO)C[C@@H]1C | -22.5% (inactive)

Same assay, conditions: purified IRAP, Leu-AMC cleavage fluorescence, 1 h; at 11 µM (top of the series)

Row | Structure (SMILES) | activation
40 | COc1ccc(CN(C)C[C@@H]2OCCCC[C@H](C)Oc3ccc(NS(=O)(=O)c4cccs4)cc3C(=O)N([C@@H](C)CO)C[C@@H]2C)cc1 | 10.9% (inactive)
41 | COC(=O)[C@H]1[C@H](CO)[C@H]2Cn3c(ccc(-c4ccncc4)c3=O)[C@H]2N1Cc1ccccc1F | 19% (inactive)
42 | COc1ccc(NC(=O)Nc2cccc3c2O[C@H](CN(C)Cc2ccc(C(=O)O)cc2)[C@H](C)CN([C@H](C)CO)C3=O)cc1 | 8.21% (inactive)
43 | O=C(O)c1cccc(NC(=O)c2ccccc2NC(=O)c2cccc([N+](=O)[O-])c2)c1 | 8.03% (inactive)
44 | COc1ccc(NC(=O)Nc2ccc3c(c2)C(=O)N([C@H](C)CO)C[C@@H](C)[C@@H](CN(C)Cc2ccc(C(=O)O)cc2)OCCCC[C@@H](C)O3)cc1 | -5.71% (inactive)
45 | C[C@H]1CN([C@@H](C)CO)C(=O)c2cccc(NC(=O)Nc3ccc(F)cc3)c2O[C@@H]1CN(C)C(=O)Nc1ccc2c(c1)OCO2 | 21.6% (inactive)
46 | CCN(CCCl)c1cc(CN(C)C)cc(NC(=O)c2ccc(C(=O)Nc3cc(CN(C)C)cc(N(CC)CCCl)c3)cc2)c1 | -21% (inactive)
47 | COc1ccc(NC(=O)Nc2ccc3c(c2)C(=O)N([C@@H](C)CO)C[C@@H](C)[C@H](CN(C)Cc2ccc(C(=O)O)cc2)OCCCC[C@H](C)O3)cc1 | 58.5% (inactive)
48 | O=C(Nc1ccc(C(F)(F)F)cc1)N1[C@@H]2CNC[C@H]1C2c1ccc(-c2ccncc2)cc1 (stereo partly drawn) | 4.27% (inactive)
49 | CC(=O)N1CCN(C(=O)C2(NC(=O)Nc3ccc(C)cc3)CCCCC2)CC1 | 10% (inactive)
50 | C[C@@H]1CCCCO[C@@H](CN(C)C)[C@@H](C)CN([C@@H](C)CO)C(=O)c2cc(NS(=O)(=O)c3ccc(F)cc3)ccc2O1 | -0.129% (inactive)
51 | Cc1ccc(S(=O)(=O)Nc2ccc3c(c2)C(=O)N([C@@H](C)CO)C[C@H](C)[C@H](CN(C)C)OCCCC[C@@H](C)O3)cc1 | 8.57% (inactive)
52 | Cc1noc(C)c1S(=O)(=O)Nc1ccc2c(c1)C(=O)N([C@H](C)CO)C[C@@H](C)[C@@H](CN(C)CC1CCCCC1)OCCCC[C@@H](C)O2 | 2.83% (inactive)
53 | COc1ccc(CN(C)C[C@@H]2OCCCC[C@@H](C)Oc3ccc(NS(=O)(=O)c4cccs4)cc3C(=O)N([C@@H](C)CO)C[C@H]2C)cc1 | -1.66% (inactive)
54 | C[C@H](CO)N1C[C@H](C)[C@H](CN(C)Cc2ccc(C(=O)O)cc2)Oc2c(NC(=O)Nc3ccccc3)cccc2C1=O | 24.2% (inactive)
55 | O=C(C[C@@H]1CC[C@@H]2[C@H](COC[C@H](O)CN2C(=O)Nc2cccc(Cl)c2)O1)N1CCCCC1 | 7.14% (inactive)
56 | C[C@@H]1CCCCO[C@@H](CN(C)C)[C@@H](C)CN([C@@H](C)CO)C(=O)c2cc(NS(=O)(=O)c3ccc(Cl)cc3)ccc2O1 | -6.93% (inactive)

Row | Structure (SMILES) | activation
57 | CCC(=O)N(C)C[C@H]1Oc2ncc(C#Cc3ccncc3)cc2C(=O)N([C@H](C)CO)C[C@H]1C | 4.22% (inactive)
58 | C[C@H](CO)N1C[C@H](C)[C@H](CN(C)CC2CCCCC2)Oc2c(NC(=O)Nc3ccc(C(F)(F)F)cc3)cccc2C1=O | 12.3% (inactive)
59 | CNC[C@H]1OCCCC[C@@H](C)Oc2ccc(NS(=O)(=O)c3ccc(C)cc3)cc2C(=O)N([C@@H](C)CO)C[C@H]1C | -8.83% (inactive)
60 | C[C@H]1CN([C@@H](C)CO)C(=O)c2cccc(NC(=O)Nc3ccc(C(F)(F)F)cc3)c2O[C@@H]1CN(C)CC1CC1 | -18.4% (inactive)
61 | COc1ccc(CN(C)C[C@H]2OCCCC[C@@H](C)Oc3ccc(NS(=O)(=O)c4cccs4)cc3C(=O)N([C@@H](C)CO)C[C@H]2C)cc1 | 2.6% (inactive)
62 | O=C(O)c1ccccc1NS(=O)(=O)c1cccc(-n2sc3ccccc3c2=O)c1 | -25.6% (inactive)
63 | COc1ccc(C(=O)O)cc1S(=O)(=O)Nc1cc(C(F)(F)F)ccc1N1CCCCC1 | 18.7% (inactive)
64 | O=C(CSc1cn[nH]n1)Nc1cccc(C(=O)O)c1 | 17.4% (inactive)
65 | COc1ccc2c3c([nH]c2c1)[C@H](CO)N(Cc1cc(F)ccc1F)CC31CN(C)C1 | 1.85% (inactive)
66 | CCCNC(=O)C[C@@H]1CC[C@@H]2[C@H](COC[C@H](O)CN2C(=O)Nc2cccc(Cl)c2)O1 | 30.1% (inactive)
67 | CCCN(C)C[C@@H]1OCCCC[C@@H](C)Oc2ccc(NS(=O)(=O)c3ccccc3)cc2C(=O)N([C@H](C)CO)C[C@@H]1C | -6.67% (inactive)
68 | Cc1noc(C)c1NC(=O)N(C)C[C@@H]1Oc2c(NC(=O)Nc3ccccc3)cccc2C(=O)N([C@H](C)CO)C[C@@H]1C | 12.9% (inactive)
69 | NC(=NCCc1c[nH]c2ccccc12)NS(=O)(=O)c1cc(F)ccc1F | 20.9% (inactive)
70 | CCn1cc(CN2CCCC(C(=O)Nc3ccc(-c4nc5ccccc5[nH]4)cc3)C2)c(C)n1 (stereo not drawn) | -5.33% (inactive)
71 | Cc1noc(C)c1NC(=O)N(C)C[C@@H]1Oc2c(NC(=O)Nc3ccc(F)cc3)cccc2C(=O)N([C@H](C)CO)C[C@@H]1C | 36.7% (inactive)
72 | C[C@@H]1CCCCO[C@@H](CN(C)Cc2ccc(C(=O)O)cc2)[C@@H](C)CN([C@H](C)CO)C(=O)c2cc(NC(=O)Nc3cccc4ccccc34)ccc2O1 | -5.32% (inactive)
73 | C[C@@H]1CCCCO[C@@H](CN(C)Cc2ccccc2)[C@H](C)CN([C@H](C)CO)C(=O)c2cc(NS(=O)(=O)c3cccs3)ccc2O1 | -6.87% (inactive)
